Measured values as given in patent US9387186B2, “Thiourea derivatives” (priority 2014, dated 2016).
Read-outs that look alike come from different tables or passages of the source.

How the values were obtained:
Assay type in all cases: cell-based, Staphylococcus aureus
MRSA 252 = assay: High throughput screening assay (MABA) against MDR S. aureus; details: for activity in MABA (in words): summary of Table 1
Experimental: (§1) In growth medium (Muller Hinton broth), the pure isolated colonies were inoculated and incubated at 37° C. for 20-24 hours. After 20-24 hours, the turbidity was checked and adjusted to 0.5 McFarland standards.
(§2) For this assay, the stock solutions of 1 mg/mL concentration of compounds (I and II) were made by using DMSO. 96-Wells sterile, flat bottom micro titer plates were used with proper labeling, 20 μg/mL of both compounds were added in first wells and made two fold serial dilutions by using sterile broth. The cells suspensions (conc. 5×10^5) were then added in each wells, finally the volume was made up with broth up to 200 μL in each well. The plate was sealed and incubated at 37° C. for 20-24 hours. Experiments were carried out in triplicate manner. After incubation of 20-24 hours, Alamar Blue Dye was added (10%) to the culture volume and kept the plates on shaking incubator at 37° C. for 3 to 4 hours. Change in color was then assessed visually and qualitatively. Quantitative analysis was recorded by taking absorbance at 570 and 600 nm by a spectrophotometer.
(§3) The above mentioned protocol was followed by the method reported by Sarkar et al., (2007) with slight modifications.
(§4) Percentage reduction and inhibition of Alamar blue dye was calculated by using the following formulas:
(§5) [formula] Where, • εox=molar extinction coefficient of Alamar blue oxidized form (blue) • εred=molar extinction coefficient of Alamar blue reduced form (pink) • A=absorbance of test wells • A′=absorbance of negative control well • λ1=570 nm • λ2=600 nm
(§6) Here control wells contain only media plus Alamar Blue, while the test wells contain both Alamar Blue with the test compounds.
(§7) [formula] Where, • εox=molar extinction coefficient of Alamar blue oxidized form (blue) • A=absorbance of test wells • A°=absorbance of positive growth control well • λ1=570 nm • λ2=600 nm
(§8) Here control wells contain cells+media+Alamar Blue, while the test wells contain both Alamar Blue with the test compounds+cells (The percent inhibitions are available in Table 1).

Clinical Isolates = assay: as above; details: for activity in MABA (in words): summary of Table 1
Experimental: as §1, §2, §3, §4, §5, §6, §7, §8

EMRSA-17 [1] = assay: as above; details: for activity in MABA (in words): summary of Table 1
Experimental: as §1, §2, §3, §4, §5, §6, §7, §8

EMRSA-16 [2] = assay: as above; details: for activity in MABA (in words): summary of Table 1
Experimental: as §1, §2, §3, §4, §5, §6, §7, §8

EMRSA-17 [3] = assay: Reversal of multi-drug resistance (MIC / FIC, Alamar blue)
Experimental: (§9) Fixed concentration of compounds I and II and increasing concentration of antibiotics (drugs) were made in 96-well plates. 5×10^5 multidrug resistant S. aureus cells were added in each well and incubated for 20-24 hours. No test compounds and antibiotics were present in control wells Inhibition and growth were noted both visually and by using the dye Alamar blue. FIC of Antibiotic a (FICa)=MIC of Antibiotic a in combination/MIC of Antibiotic a alone FIC of Compound b (FICb)=MIC of Compound b in combination/MIC of Compound b alone
(§10) The sum of Fractional Inhibitory Concentration (FICs) index of (FICa)+(FICb)=(FICs). Fractional inhibitory concentrations were calculated by the above cited formula. (The FIC values of compounds I and II are available (FIGS. 4A and 4B). Protocol of Chung et al. (2011), with slight modifications, was followed for above discussed reversal resistance assay.

EMRSA-16 [4] = assay: as above; details: for MIC of antibiotic in combination: antibiotic in combination of compounds I and II
Experimental: as §9, §10

EMRSA-16 and -17 [5] = assay: Inhibition of MDR efflux pumps, EtBr accumulation flow cytometry; details: combinations with antibiotics, 3 hrs; FL-2 channel
Experimental: Assay Protocol: Different combinations of compounds I and II with antibiotics, and antibiotic alone, were made and incubated with bacterial cells for 3 hrs. After incubation cells were stained with ethidium bromide. Both the control and treated cells were centrifuged for 3 mins at 13,000 rpm. The pallet was washed with PBS. Negative control was free from ethidium bromide (EtBr), while positive control contains (EtBr). By using FL2 channel, FACS analyses were carried out. Protocol of Kalle et al. (2009) was employed with some modifications.
Flow cytometry data acquisition: For data acquisition and analysis Cell Quest software (BD) were used. A total number of 50,000 cells were counted. EtBr fluorescence was detected through (FL-2 channel).

EMRSA-16 and -17 [6] = assay: Reactive oxygen species (O2-) production, lucigenin CL assay; details: 25, 50 and 100 μg/mL; lucigenin chemiluminescence
Experimental: Assay Protocol: 5×10^5 Cells were incubated with the different concentrations of compounds (25, 50 and 100. μg/mL), leucigenin and filtered phosphate buffer saline. For the triggering of reaction, DMSO was added to the each well at the time of RLU determination. No test compounds were added in positive control but it contained DMSO, while no test compound and DMSO were added in negative control. Chemiluminescence (CL) was determined at room temperature by luminometer. The light emission results were measured in relative light unit (RLU). Protocol of above discussed protocol was followed by the method of Albesa et al (2002) with slight modifications.

EMRSA-16 and -17 [7] = assay: Membrane potential and integrity, DiBAC4(3) flow cytometry; details: 20 μg/mL, 20-24 h; DiBAC4(3) fluorescence FL1
Experimental: 20 μg/mL of compounds I and II were tested against 5×10^5 multidrug resistant S. aureus cells and incubated for 20-24 hours, while cells without compounds were taken as a control. Stock solution (1 mg/mL) for the membrane potential probe DiBAC4(3) was made in absolute ethanol and stored at −20° C. 1 mL of exponentially growing S. aureus were taken from broth cultures and centrifuged at 11,000 rpm for 2 mins Supernatant was discarded and cells pallets were dissolved in 4 mL of filtered phosphate-buffered saline (PBS). Final 10 μg/mL conc. of fluorogenic substrates DiBAC4 were adjusted in 4 mL volume. The stained cell suspension was incubated at 37° C. for 30 min. Before flow cytometric analysis, cells were washed in PBS buffer by centrifugation. The above mentioned protocol was adapted from the procedures of Jepras et al. (1997) with slight modifications. Assays were performed by using Becton Dickinson FACSCaliber™ flow cytometer (USA). A total of 50,000 cells were counted by using Cell Quest software (BD) for data acquisition and analysis. DiBAC4(3) was detected as green fluorescence in the channel FL1 (Veal et al., 2000).

[8] = Staphylococcus aureus, EMRSA-17, substance alone, read-out: MIC
[9] = Staphylococcus aureus, 20 μg/mL, Alamar blue, 20-24 h

Thiocarbamide [Thiourea]
% Inhibition 20 μg/mL MRSA 252 (MRSA 252; 20 μg/mL, Alamar blue, 20-24 h): No Inhibition
activity in MABA (in words) (MRSA 252): resistant
% Inhibition 20 μg/mL Clinical Isolates (Clinical Isolates; 20 μg/mL, Alamar blue, 20-24 h): No Inhibition
activity in MABA (in words) (Clinical Isolates): resistant
activity in MABA (in words) (EMRSA-17 [1]; 20 μg/mL): resistant
% Inhibition 20 μg/mL EMRSA-17 (EMRSA-17 [1]; Alamar blue, 20-24 h): No Inhibition
activity in MABA (in words) (EMRSA-16 [2]; 20 μg/mL): resistant
% Inhibition 20 μg/mL EMRSA-16 (EMRSA-16 [2]; Alamar blue, 20-24 h): No Inhibition

neomycin
MIC (EMRSA-17 [3]; EMRSA-17, substance alone): 512 µg/mL
MIC of antibiotic in combination (EMRSA-16 [4]): 8 µg/mL

penicillin
MIC (EMRSA-17 [3]; EMRSA-17, substance alone): 1024 µg/mL
MIC of antibiotic in combination (EMRSA-16 [4]): 8 µg/mL

Cc1cc(NS(=O)(=O)c2ccc(N)cc2)no1 [sulfamethoxazole]
interaction of antibiotic with compounds (FIC) (EMRSA-17 [3]; EMRSA-17, with both compounds I and II): indifference effect
MIC (EMRSA-17 [3]; [8]): 2080 µg/mL

O=C(O)c1cn(C2CC2)c2cc(N3CCNCC3)c(F)cc2c1=O [ciprofloxacin]
MIC of antibiotic in combination (EMRSA-16 [4]): 4 µg/mL

NCC[C@H](O)C(=O)N[C@@H]1C[C@H](N)[C@@H](O[C@H]2O[C@H](CN)[C@@H](O)[C@H](O)[C@H]2O)[C@H](O)[C@H]1O[C@H]1O[C@H](CO)[C@@H](O)[C@H](N)[C@H]1O [amikacin]
MIC (EMRSA-17 [3]; Staphylococcus aureus): 256 µg/mL
MIC of antibiotic in combination (EMRSA-16 [4]): 4 µg/mL

O=C(N[C@H](CO)[C@H](O)c1ccc([N+](=O)[O-])cc1)C(Cl)Cl [chloramphenicol]
MIC of antibiotic in combination (EMRSA-16 [4]): 16 µg/mL

Cc1onc(-c2ccccc2)c1C(=O)N[C@@H]1C(=O)N2[C@@H]1SC(C)(C)[C@@H]2C(=O)O [oxacillin]
MIC (EMRSA-17 [3]; [8]): 2050 µg/mL
MIC of antibiotic in combination (EMRSA-16 [4]): 16 µg/mL

NC(N)=O [Urea, Carbamide, carbonyl diamide, carbonyldiamine, Diaminomethanal]
% Inhibition 20 μg/mL MRSA 252 (MRSA 252; 20 μg/mL, Alamar blue, 20-24 h): No Inhibition
activity in MABA (in words) (MRSA 252): resistant
% Inhibition 20 μg/mL Clinical Isolates (Clinical Isolates; 20 μg/mL, Alamar blue, 20-24 h): No Inhibition
activity in MABA (in words) (Clinical Isolates): resistant
activity in MABA (in words) (EMRSA-17 [1]; 20 μg/mL): resistant
% Inhibition 20 μg/mL EMRSA-17 (EMRSA-17 [1]; Alamar blue, 20-24 h): No Inhibition
activity in MABA (in words) (EMRSA-16 [2]; 20 μg/mL): resistant
% Inhibition 20 μg/mL EMRSA-16 (EMRSA-16 [2]; Alamar blue, 20-24 h): No Inhibition

gentamicin
MIC (EMRSA-17 [3]; EMRSA-17, substance alone): 1024 µg/mL
MIC of antibiotic in combination (EMRSA-16 [4]): 8 µg/mL

COc1cccc(NC(=S)Nc2cccc(Cl)c2)c1 [II, N-(3-Chlorophenyl)-N-(3methoxyphenyl) thiourea]
inhibition of efflux pump (EtBr accumulation) (EMRSA-16 and -17 [5]): excellent capacity to inhibit the bacterial efflux pump mechanism
production of reactive oxygen species (O2-) (EMRSA-16 and -17 [6]): generation of O2^− in MDR cells were detected
inhibition at 20 µg/mL (MRSA 252; [9]): 14.8%
inhibition at 20 µg/mL (Clinical Isolates; [9]): 19.6%
activity in MABA (in words) (EMRSA-17 [1]; 20 μg/mL): active
inhibition at 20 µg/mL (EMRSA-17 [1]; [9]): 82.6%
activity in MABA (in words) (EMRSA-16 [2]; 20 μg/mL): active
inhibition at 20 µg/mL (EMRSA-16 [2]; [9]): 50.1%
effect on membrane potential and integrity (EMRSA-16 and -17 [7]): depolarization and the disruption of cytoplasmic membrane
MIC (EMRSA-17 [3]; [8]): 25 µg/mL
MIC (EMRSA-16 [4]; Staphylococcus aureus, substance alone): 52 µg/mL

CCC[C@@H]1C[C@@H](C(=O)N[C@@H]([C@H]2O[C@H](SC)[C@H](O)[C@@H](O)[C@H]2O)[C@H](C)Cl)N(C)C1 [clindamycin]
MIC (EMRSA-17 [3]; [8]): 4100 µg/mL
MIC of antibiotic in combination (EMRSA-16 [4]): 32 µg/mL
